Literature values as cited in patent EP0490031B1, “Method for protecting crops while eliminating crop injury due to pesticide interactions” (priority 1990, dated 1992).

Assays:
rabbits = conditions: technical grade

| Compound | acute percutaneous LD50 (rats) | acute percutaneous LD50 (rabbits) |
| --- | --- | --- |
| CCOP(=S)(OCC)SCSCC [Phorate] | 2.5-6.2 mg/kg of animal body weight | – |
| CCOP(=S)(OCC)SCSC(C)(C)C [Technical grade terbufos, O,O-diethyl S-{[(1,1-dimethylethyl)thio]methyl}phosphorodithioate] | – | 1.0 mg/kg of animal body weight |
